Common to all, as to type: cell-based
In test [1] the test system is A549 cells. Kind of test: BrdU incorporation assay. The note with it: 20 μM, 2 days. On the procedure: A549 cells were infected with the lentivirus expressing NT or PRMT5 shRNA. A549 cells were grown in the presence of DMSO or compound C5, C9 or C11 (20 μM) for 2 days. A, Bromodeoxyuridine (BrdU) (BD Biosciences) incorporation assay. Cells were plated on a Chamber slide (BD falcon) and cultured in the presence of 10 μM BrdU for 4 h. The BrdU-positive cells (brown) were detected by immunostaining with the monoclonal anti-BrdU antibody (BD Biosciences) and observed under a microscope. B, Percentage of BrdU-positive cells in control, PRMT5-silencing or compound treated cells. The results represent the means of three independent experiments ± the standard deviation. ***, P<0.001. (TIF) Click here for additional data file.
In general terms: Incorporation of labelled thymidine or its analogues reports DNA synthesis.

Test [2] deals with arginine methylation in histone H2A, histone H4 and B-Raf in A549 cells. Kind of test: Western blot of symmetrical arginine dimethylation of PRMT5 substrates in cells. Particulars: 20 μM, SYM10 antibody. On the procedure:
Histones were purified as reported previously. Briefly, cells (1–5 x 10^6) or lung tumors (10–100 mg) were lysated using a glass dounce in 1 ml of 1x Passive Lysis Buffer (Promega) and nuclear pellets were collected by centrifugation at 3,000 rpm for 5 min at 4 °C. The supernatant was discard and the pellets were washed with 1 ml of 1x Passive Lysis Buffer. Nuclear pellets were resuspended in 0.4 ml of the buffer (10 mM Trs-HCl, pH7.9, 0.2 mM EDTA, 1 mM DTT, 20% glycerol, 0.42 M KCl) and incubate for 30 min on ice, and centrifuged at 12,000 rpm for 10 min at 4 °C. The supernatant (histones extract) was transferred to a new tube and histones were precipitated by 20% trichloroacetic acid.
Protein extracts or histones (20 μg) were subjected to 10% or 15% sodium dodecyl sulfate-polyacrylamide gel electrophoresis, respectively then transferred to Immobilon-P membranes (Millipore). The blots were then probed for 2 hours with the primary antibody at dilutions of 1:500 (anti-symmetrical dimethylated arginine, SYM10, EMD Millipore), 1:1,000 (anti-B Raf, ab65050, Abcam) or 1:1,000 (anti-PRMT5, Abcam). The blots were then incubated with a horseradish peroxide-conjugated secondary antibody (1:5,000; Fischer Scientific) for 1.5 h. Immunoreactive proteins were detected using an enhanced chemiluminescence detection system (GE Healthcare) per the manufacturer’s instructions. Protein concentrations were determined using the Bradford protein assay reagent (Bio-Rad).
A, The cellular permeability of identified compounds. Lung cancer A549 cells were cultured in the presence of various concentrations of compounds for 2h and the compound concentrations in the cell were determined by HPLC chromatography with a C18 column. B, The cellular stability of identified compounds. […] The compound concentrations in the cell were determined by HPLC chromatography with a C18 column. […] Histones were purified and analyzed by SDS-PAGE stained with Commassie blue (lanes 1–4, bottom) or by Western blot with anti-symmetric dimethyl arginine antibody (SYM10) (lanes 1–4, top). […]

Test [3] concerns A549 cells. Kind of test: Cell growth by cell counting, A549. Particulars: for A549 cell growth inhibition: various concentrations and time points. On the procedure: Lung cancer A549 (ATCC) and PC14 (ATCC) cells were cultured in minimum essential medium (Cellgro) with 10% (v/v) fetal bovine serum (FBS) (HyClone), 2% vitamins, 1% L-glutamine, 1% non-essential amino acids and 1% sodium pyruvate. For the treatment with identified compounds, cells (2, 000 cells/well) were seeded in 24-well plates in the medium containing 2% FBS. The fresh medium containing identified compounds was added 24 hours later. Cells were cultured for various times in a CO2 incubator and the cell numbers were counted. Each experiment was performed in triplicate.
A, Lung cancer A549 cells were cultured in the presence of various concentrations (μM) of identified compounds and growth inhibition was determined by cell counting at various time points. B, Lung cancer PC14 cells were cultured in the presence of DMSO or various concentrations of identified compounds and growth inhibition was determined by cell counting 2 days post the compound treatment. C, The serum concentrations of compound C9 after oral administration. Mice were sacrificed and blood samples were collected immediately before (0 h) and at 2, 4, 6 and 8h after compound administration.
Fig 8 The C9 analogue has improved PRMT5-inhibitory efficacy and oral drug availability. A, The chemical structure of the C9 analogue. B, Compound C9a inhibited methylation of SmD3 by PRMT5. The recombinant SmD3 (2 μg) was used as the substrate in the absence (lane 5) or presence of 1, 10 or 100 μM compounds as indicated. […] C, C9a has improved efficacy to inhibit lung cancer growth. A549 cells were cultured in the presence of various concentrations of C9 or C9a and growth inhibition was determined by cell counting 2 days post the compound treatment. […] Male BALB/c mice were randomized and administrated C9a by oral gavage and compound concentrations in blood samples were determined.

For test [4], the system named is A549 cells. Kind of test: Cell cycle distribution by flow cytometry. The note with it: 20 μM, 2 days. On the procedure: Supplementary file pone.0181601.s002.tif: S2 Fig Identified compounds arrested cell cycle at the G1 phase. A549 cells were infected with the lentivirus expressing non-target (NT) or PRMT5 shRNA as described previously by us. A549 cells were grown in the presence of DMSO or 20 μM of the compound C5, C9 or C11 for 2 days. A, PRMT5 protein levels in A549 cells. Whole cell lysates were prepared and submitted for Western blot analysis with anti-PRMT5 (top) or anti-actin (bottom) antibody. B, Cell cycle distributions. Cells were harvested, washed with phosphate-buffered saline (PBS) and fixed in 70% ethanol at 4 °C overnight. Cells were collected and stained with propidium iodide (PI). The cell-cycle distributions were determined by flow cytometry analysis (BD Accuri^TM C6 Flow Cyometer). (TIF) Click here for additional data file.
On the technique in general: In flow cytometry, cells or beads pass a laser one at a time.

`CCn1c(=O)[nH]c2cc(C(=O)Nc3ccc(OC)cc3)ccc2c1=O` [Compound C5]: the “cellular proliferation (BrdU)” value with A549 cells [1] is on record as “inhibited proliferation of lung cancer cells”. Further, the “arginine methylation in histone H2A, histone H4 and B-Raf” value (shortened to “arginine methylation in histone H2A”) in test [2] is “significantly inhibited”. Moreover, the “A549 cell growth inhibition” value in the test on A549 cells [3] was “inhibited A549 cell growth in a dosage- and time-dependent manner at sub μM concentrations”. The cell cycle effect result with A549 cells [4] is “arrested the cell cycle at the G1 phase”.

For orientation: IC50 means the midpoint of a concentration-inhibition curve. A low value points to inhibition by little substance. Take `COc1ccc(Nc2ncnc3c2cnn3Cc2ccc(C)cc2)cc1` [Compound C9]: the “cellular proliferation (BrdU)” value in the test with A549 cells [1] is recorded as “inhibited proliferation of lung cancer cells”. Also, the “arginine methylation in histone H2A” value in test [2] is reported as “significantly inhibited”. The IC50 with A549 cells [3] (Homo sapiens, A549 cells) is roughly 1000 nM. The “A549 cell growth inhibition” value in the test on A549 cells [3] was “inhibited A549 cell growth in a dosage- and time-dependent manner at sub μM concentrations”. Further, the cell cycle effect entry in the test on A549 cells [4] was “arrested the cell cycle at the G1 phase”.

Take `Nc1cccc(Nc2ncnc3c2cnn3Cc2ccccc2)c1` [Compound C9a]: the “inhibition of growth of lung cancer cells compared to C9” value in the test on A549 cells [3] (A549 cells, 2 days) is reported as “higher efficacy”.

Turning to `Cn1cc(C(c2ccc(O)c(O)c2O)c2cn(C)c3ccccc23)c2ccccc21` [Compound C11], the “cellular proliferation (BrdU)” value in the test with A549 cells [1] is given as “inhibited proliferation of lung cancer cells”. Also, the “arginine methylation in histone H2A” value in test [2] is reported as “significantly inhibited”. The “A549 cell growth inhibition” value in the test on A549 cells [3] was “inhibited A549 cell growth in a dosage- and time-dependent manner at sub μM concentrations”. For the same compound, the cell cycle effect entry with A549 cells [4] is listed as “arrested the cell cycle at the G1 phase”.

For the origin of these results see PMC5555576, “Selective small-chemical inhibitors of protein arginine methyltransferase 5 with anti-lung cancer activity” (PLoS ONE, 2017).
